# Results from patent publication US6613553B1, “Enoyl reductases and methods of use thereof” (priority 2000, dated 2003).
# “Also recorded” adds a separate entry of the source. Where two headings read alike, the source gives them in different places.
# Legend:
# [1] = test system: E. coli RJR108 (fabI[G93V]); experiment: triclosan MIC on LB agar plates; type: cell-based; settings: Escherichia coli
# [2] = biological target: FabI protein from P. aeruginosa (Pseudomonas aeruginosa, UniProt Q9ZFE4); settings: cited from earlier work
# Sequence of FabI protein from P. aeruginosa (Q9ZFE4 whole entry): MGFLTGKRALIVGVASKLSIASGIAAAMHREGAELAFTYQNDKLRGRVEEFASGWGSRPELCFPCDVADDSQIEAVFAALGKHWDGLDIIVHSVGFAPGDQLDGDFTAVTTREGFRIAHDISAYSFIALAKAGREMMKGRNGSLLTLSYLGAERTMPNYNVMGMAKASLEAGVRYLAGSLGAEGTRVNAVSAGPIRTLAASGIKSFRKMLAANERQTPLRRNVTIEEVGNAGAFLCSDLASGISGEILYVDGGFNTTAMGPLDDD
# E. coli W3110/pfabI = experiment: triclosan MIC on LB agar plates; type: cell-based; settings: Escherichia coli; E. coli W3110/pfabI (His-tag E. coli FabI, multi-copy plasmid)
# E. coli W3110/pfabK = experiment: triclosan MIC on LB agar plates; type: cell-based, Escherichia coli; settings: for MIC: Escherichia coli
# Description: FabI is the only enoyl reductase in E. coli and strain RJH13 harbors a fabI(Ts) allele and fails to grow at 42° C. [Heath et al., J. Biol. Chem., 273:30316 (1998)]. […] The pfabK plasmid was then introduced into the wild-type E. coli strain W3110. […] J. Infect. Control, 24:209 (1996)].
# B. subtilis = settings: cited from earlier work
# FabI[G93V] mutant = biological target: T1, FabI[G93V] mutant (Escherichia coli, UniProt P0AEK4, G93V); settings: fails to form high-affinity FabI-NAD+-triclosan ternary complex; cited from earlier work
# T1 sequence (P0AEK4 1-262 G93V): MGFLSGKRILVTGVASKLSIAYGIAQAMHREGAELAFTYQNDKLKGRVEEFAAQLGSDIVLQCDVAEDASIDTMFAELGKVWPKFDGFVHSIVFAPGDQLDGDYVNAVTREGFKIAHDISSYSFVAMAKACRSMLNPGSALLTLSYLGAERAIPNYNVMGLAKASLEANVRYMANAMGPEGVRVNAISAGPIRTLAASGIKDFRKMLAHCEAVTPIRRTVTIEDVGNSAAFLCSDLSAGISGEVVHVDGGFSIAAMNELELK
# P. aeruginosa = settings: contains both FabI and FabK; cited from earlier work
# E. coli expressing FabL = settings: FabL cloned from B. subtilis (ygaA)
# Text: However, such limited structural information alone cannot allow the identification since the overall identity of SDRs are low and the family size is large.
# [3] = test system: E. coli W3110/pBluescript; experiment: triclosan MIC on LB agar plates; type: cell-based; settings: Escherichia coli; E. coli W3110/pBluescript (empty vector); no growth in at least three experiments
# FabK = FabK (Streptococcus pneumoniae, UniProt Q9FBC5); type: biochemical
# Sequence of FabK (Q9FBC5 entry or part of it): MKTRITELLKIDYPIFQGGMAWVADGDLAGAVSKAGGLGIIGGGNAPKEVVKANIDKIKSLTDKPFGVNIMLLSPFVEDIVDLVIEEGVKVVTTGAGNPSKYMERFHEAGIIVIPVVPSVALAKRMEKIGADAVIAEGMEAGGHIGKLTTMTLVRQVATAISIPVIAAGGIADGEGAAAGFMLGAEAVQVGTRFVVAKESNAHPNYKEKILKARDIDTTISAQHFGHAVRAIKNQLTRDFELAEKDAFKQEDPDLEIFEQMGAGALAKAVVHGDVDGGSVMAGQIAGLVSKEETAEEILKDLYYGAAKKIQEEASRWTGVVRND
# Description: A coupled enzyme system was employed to assay FabK by combining the purified E. coli proteins required to reconstitute a cycle of fatty acid synthesis with the exception of the FabI enoyl-ACP reductase. Reaction mixtures were first incubated to generate trans-2-butenoyl-ACP and then the indicated amounts of FabK were added as described in the Example below. Products were separated by conformationally sensitive gel electrophoresis and the bands visualized and quantitated using a Phosphorimager (FIG. 2C).
# Enzymatic Assays: A reaction mixture containing 100 μM ACP, 1 mM β-mercaptoethanol, 100 μM acetyl-CoA, 50 μM [2-^14C]malonyl-CoA (56 mCi/mmol), 200 μM NADPH, 200 μM NADH, and 12.5 μg/ml of each FabD, FabH, FabG, FabA and FabZ in 0.1 M sodium phosphate pH 7.0 was incubated at 37° C. for 30 min to generate the trans-2-enoyl-ACP substrate before being aliquoted into individual reaction tubes to which FabK was added to the final amount as indicated for the Figures, above. The final reaction volume was 40 μL. Reactions were then incubated for 30 min at 37° C. and were stopped by placing into an ice slurry. Gel loading buffer was added, and the entire sample was loaded onto a 13% polyacrylamide gel containing 0.5 M urea [Heath and Rock, J. Biol. Chem., 271:1833 (1996)]. […]
# S. pneumoniae R6 = experiment: triclosan MIC on brain heart infusion plates; type: cell-based; settings: Streptococcus pneumoniae
smiles,measurement,setting,value
"Oc1cc(Cl)ccc1Oc1ccc(Cl)cc1Cl [triclosan, 2,4,4′-Trichloro-2′-hydroxydiphenyl ether]",MIC,[1],16 µg/mL
same,susceptibility of P. aeruginosa FabI to triclosan in vitro,[2],highly susceptible
same,MIC,E. coli W3110/pfabI,2 µg/mL
same,triclosan resistance of E. coli expressing fabK,E. coli W3110/pfabK; E. coli with fabK expression,completely resistant; also recorded: complete triclosan resistance
same,MIC,"E. coli W3110/pfabK; E. coli W3110/pfabK (His-tag S. pneumoniae FabK), read-out: MIC",> 2000 µg/mL
same,MIC,"E. coli W3110/pfabK; pfabK plasmid in strain W3110, read-out: minimum inhibitory concentration (MIC)",> 2000 µg/mL
same,MIC,B. subtilis,about 2 μg/ml
same,inhibition of FabI[G93V] mutant by triclosan,FabI[G93V] mutant,still inhibited
same,triclosan inhibition of P. aeruginosa,P. aeruginosa,completely refractory
same,triclosan resistance of E. coli expressing FabL,E. coli expressing FabL,complete triclosan resistance
same,MIC,[3],0.25 µg/mL
same,inhibition of FabK activity in the in vitro assay,FabK,did not inhibit
same,MIC,"S. pneumoniae R6; R6, S. pneumoniae",~2 µg/mL
same,MIC,"S. pneumoniae R6; R6, S. pneumoniae R6, brain heart infusion plates",2 µg/mL
